Earlier results, collected in patent US20070032536A1, “Compounds, compositions and methods” (priority 2003, published 2007).

Tested on: A549 cells
Settings: data provided by National Cancer Institute, Developmental Therapeutic Program

Compound | GI50
NC(=O)NO [hydroxyurea] | 500000 nM
CC(=O)O[C@H]1C(=O)[C@@]2(C)[C@H]([C@H](OC(=O)c3ccccc3)[C@]3(O)C[C@H](OC(=O)[C@H](O)[C@@H](NC(=O)c4ccccc4)c4ccccc4)C(C)=C1C3(C)C)[C@]1(OC(C)=O)CO[C@@H]1C[C@@H]2O [paclitaxel] | 4 nM
COc1cccc2c1C(=O)c1c(O)c3c(c(O)c1C2=O)C[C@@](O)(C(=O)CO)C[C@@H]3O[C@H]1C[C@H](N)[C@H](O)[C@H](C)O1 [doxorubicin] | 63 nM
O=c1[nH]cc(F)c(=O)[nH]1 [5-fluorouracil] | 1000 nM
